Source: US20120077794A1, “BIS-PYRIDYLPYRIDONES AS MELANIN-CONCENTRATING HORMONE RECEPTOR 1 ANTAGONISTS” (GLAXSMITHKLINE LLC, priority 2009, published 2012)
Like-named read-outs stand apart in the source and are kept apart here.

Target: T1, hMCHR1 (Homo sapiens, UniProt Q99705)
T1 construct: expressed in transfected cells; host or cells: HEK293
Experiment: MCHR1 pIC50 Determination FLIPR Assay
Assay type: cell-based
Description: MCHR1 pIC50 Determination FLIPR™ Assay: HEK293 cells stably transfected with hMCHR1 were propagated as adherent cultures at 37° C. in a humidified incubator. Cells were split 1:8 at 90% confluency two times per week. New cell stocks were recovered from storage every two months. Cells were plated in black 384-well plates (Greiner) 24 hours prior to assay at 15,000 cells/well in 50 μL DMEM/F12, 10% FBS, 2 mM I-glutamine. Compounds to be profiled were prepared by making a stock solution at 3×10^−3M in 100% DMSO. The stock solutions were serially diluted 1:4 in 100% DMSO using JANUS (PerkinElmer) liquid handling instrument to allow for an 11 point curve in singlicate. At the time of the assay, the media was removed from the cell plate by aspiration, followed by the addition of 20 μL of loading buffer (Calcium 4 Kit, […]). Following 50 min incubation at 37° C., 10 μL of compound was added to the plates via the FLIPR™ instrument ([…]). The plates were incubated at room temperature for 15 minutes along with an MCH peptide agonist challenge plate. On the FLIPR™, a basal response was collected over 10 seconds followed by the addition of 10 μL of MCH challenge concentration at 4XEC50. Data was collected over 4 minutes and subjected to a nonlinear regression analysis curve fitting program to generate pIC50s.

[1] = HEK293 cells stably transfected with hMCHR1, MCH challenge at 4XEC50, at least one experimental run, read-out: IC50 in the FLIPR assay

T1 sequence (Q99705 whole entry): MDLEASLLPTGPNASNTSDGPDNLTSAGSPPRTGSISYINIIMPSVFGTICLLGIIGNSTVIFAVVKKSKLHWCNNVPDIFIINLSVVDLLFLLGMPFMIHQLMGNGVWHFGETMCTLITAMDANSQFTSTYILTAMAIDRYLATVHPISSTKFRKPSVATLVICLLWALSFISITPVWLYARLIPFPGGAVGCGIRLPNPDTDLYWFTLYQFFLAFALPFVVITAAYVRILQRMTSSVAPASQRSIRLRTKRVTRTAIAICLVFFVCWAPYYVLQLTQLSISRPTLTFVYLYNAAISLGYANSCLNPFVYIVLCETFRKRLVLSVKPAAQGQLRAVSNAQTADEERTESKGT

IC50 (quantity and assay not stated, read-out: unlabelled value in the heading of Example 2) [µM]	IC50 [1] [µM]	SMILES
0.088		O=c1cc(OCc2ccc(Cl)cn2)ccn1-c1ccc(N2CCNCC2)nc1 [Example 2, 4-{[(5-chloro-2-pyridinyl)methyl]oxy}-6′-(piperazin-1-yl)-2H-1,3′-bipyridin-2-one]
	0.048	O=c1cc(OCc2ccc(Cl)cn2)ccn1-c1ccc(N2CCC[C@@H]2CO)nc1 [Example 4, 4-{[(5-chloro-2-pyridinyl)methyl]oxy}-6′-{[(2R)-hydroxymethyl]pyrrolidin-1-yl}-2H-1,3′-bipyridin-2-one]
	0.052	O=c1cc(OCc2ccc(Cl)cn2)ccn1-c1ccc(N2CCCNCC2)nc1 [Example 13]
	0.053	CC(C)[C@H]1CN(c2ccc(-n3ccc(OCc4ccc(Cl)cn4)cc3=O)cn2)CCN1C [Example 19]
